Assay results reported in patent US7550451B2, “Progesterone receptor modulators with increased antigonadotropic activity for female birth control and hormone replacement therapy” (Bayer Schering Pharma AG, priority 2002, dated 2009).

How the values were obtained:
[1] = target: T1, Progesterone receptor (Oryctolagus cuniculus, UniProt P06186); test: Receptor binding affinity, progesterone receptor (competitive binding, 3H-ORG 2058); conditions: Progesterone = 100%; uterus cytosol of estradiol-primed rabbit
T1 construct: Uterus cytosol of the estradiol-primed rabbit; from tissue; host or cells: uterus cytosol of estradiol-primed rabbit
T1 sequence (P06186 1-930): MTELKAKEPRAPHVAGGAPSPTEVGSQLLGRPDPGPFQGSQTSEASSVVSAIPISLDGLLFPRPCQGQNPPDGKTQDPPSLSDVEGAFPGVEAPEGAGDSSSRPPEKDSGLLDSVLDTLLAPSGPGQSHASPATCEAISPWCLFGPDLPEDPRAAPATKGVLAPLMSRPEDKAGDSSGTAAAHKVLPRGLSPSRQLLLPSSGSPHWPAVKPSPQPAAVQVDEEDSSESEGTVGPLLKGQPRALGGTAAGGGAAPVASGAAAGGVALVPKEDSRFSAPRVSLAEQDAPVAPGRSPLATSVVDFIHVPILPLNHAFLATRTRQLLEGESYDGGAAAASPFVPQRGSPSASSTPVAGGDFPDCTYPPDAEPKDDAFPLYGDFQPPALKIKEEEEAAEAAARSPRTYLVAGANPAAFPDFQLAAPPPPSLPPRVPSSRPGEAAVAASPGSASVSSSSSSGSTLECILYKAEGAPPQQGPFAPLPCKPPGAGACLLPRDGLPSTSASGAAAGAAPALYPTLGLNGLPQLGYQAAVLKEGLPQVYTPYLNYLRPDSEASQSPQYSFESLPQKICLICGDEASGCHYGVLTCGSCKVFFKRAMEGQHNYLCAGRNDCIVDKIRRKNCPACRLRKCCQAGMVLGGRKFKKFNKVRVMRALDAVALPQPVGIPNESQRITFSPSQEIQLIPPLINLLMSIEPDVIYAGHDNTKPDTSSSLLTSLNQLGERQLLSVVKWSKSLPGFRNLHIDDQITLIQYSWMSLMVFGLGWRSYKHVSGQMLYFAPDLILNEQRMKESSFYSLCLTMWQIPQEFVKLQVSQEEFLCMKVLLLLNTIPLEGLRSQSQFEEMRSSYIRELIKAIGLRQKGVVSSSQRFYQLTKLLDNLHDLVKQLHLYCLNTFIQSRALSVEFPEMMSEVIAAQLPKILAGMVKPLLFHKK
Experimental: (§1) The receptor binding affinity was determined by competitive binding of a specifically binding ^3H-labeled hormone (tracer) and the compound to be tested on receptors in the cytosol from animal target organs. In this case, receptor saturation and reaction equilibrium were sought.
(§2) The tracers and increasing concentrations of the compound to be tested (competitor) were co-incubated with the receptor-containing cytosol fraction at 0-4° C. over 18 hours. After separation of the unbonded tracer with carbon-dextran suspension, the receptor-bonded tracer portion was measured for each concentration, and the IC50 was determined from the concentration sequence. As a quotient of the IC50 values of the reference substance and the compound to be tested (×100%), the relative molar binding affinity (RBA) was calculated (RBA of the reference substance=100%).
Uterus cytosol of the estradiol-primed rabbit; homogenized in TED buffer (20 mmol of Tris/HCl, pH 7.4; 1 mmol of ethylenediamine tetraacetate, 2 mmol of dithiothreitol) with 250 mmol of saccharose; stored at −30° C. Tracer: ^3H-ORG 2058, 5 nmol; reference substance: progesterone.

[2] = target: T2, Glucocorticoid receptor (Rattus norvegicus, UniProt P06536); test: Receptor binding affinity, glucocorticoid receptor (competitive binding, 3H-dexamethasone); conditions: Dexamethasone = 100%; thymus cytosol of adrenalectomized rat
T2 construct: Thymus cytosol of the adrenalectomized rat; from tissue; host or cells: thymus cytosol of adrenalectomized rat
T2 sequence (P06536 1-795): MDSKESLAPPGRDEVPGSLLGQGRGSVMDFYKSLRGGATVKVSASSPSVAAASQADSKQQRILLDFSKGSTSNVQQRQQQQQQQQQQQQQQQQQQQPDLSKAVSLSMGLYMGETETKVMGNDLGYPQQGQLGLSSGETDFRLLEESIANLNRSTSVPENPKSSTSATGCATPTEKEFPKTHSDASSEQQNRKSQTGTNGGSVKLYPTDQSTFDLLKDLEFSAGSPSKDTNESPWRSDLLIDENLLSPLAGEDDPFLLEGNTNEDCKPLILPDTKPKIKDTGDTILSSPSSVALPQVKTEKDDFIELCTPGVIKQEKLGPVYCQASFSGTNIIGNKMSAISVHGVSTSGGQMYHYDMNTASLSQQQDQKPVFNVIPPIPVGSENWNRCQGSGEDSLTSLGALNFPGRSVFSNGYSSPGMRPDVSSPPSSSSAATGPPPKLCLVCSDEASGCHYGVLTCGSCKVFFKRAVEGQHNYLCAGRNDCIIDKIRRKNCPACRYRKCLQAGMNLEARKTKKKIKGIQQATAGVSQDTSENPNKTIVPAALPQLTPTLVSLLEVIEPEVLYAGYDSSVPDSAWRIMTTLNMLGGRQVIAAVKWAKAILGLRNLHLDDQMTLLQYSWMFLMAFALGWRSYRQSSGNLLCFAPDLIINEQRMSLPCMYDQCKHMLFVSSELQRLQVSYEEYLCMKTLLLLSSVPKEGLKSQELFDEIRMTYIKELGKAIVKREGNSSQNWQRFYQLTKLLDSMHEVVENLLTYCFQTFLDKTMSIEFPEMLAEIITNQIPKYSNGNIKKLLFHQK
Experimental: as §1, §2
Thymus cytosol of the adrenalectomized rat, thymi stored at −30° C.; buffer: TED. Tracer: ^3H-Dexamethasone, 20 nmol; reference substance: dexamethasone.

[3] = test system: adult female rats; test: Nidation-inhibiting test (antifertile effects in the perinidation phase); type: in vivo; conditions: day 5-7 of pregnancy, rat
Experimental: The determination of the progesterone-antagonistic activities was carried out on adult female rats in the nidation-inhibiting test. The principle of the test is described as follows: progesterone preserves pregnancy in all stages. An early-abortive action can accordingly be expected from competitive progesterone antagonists. Female rats (Schoe strain: WIST Tierzucht GmbH Schönwalde) with a weight of 180-200 g were subjected daily to a cycle control and paired up in proestrus. The beginning of pregnancy was determined by detecting sperm in the vaginal smear on the same day (=day 1 of pregnancy=d1 p.c.). From the 5th-7th day of pregnancy, the test substances were injected subcutaneously daily. On the 9th day, vaginal smears were taken, then the animals were autopsied and the uteri were prepared. The degeneration of implants and pathological, hemorrhagic and otherwise abnormal nidation sites were counted as abortions and are shown in Table 2.

SMILES | PR relative molar binding affinity (RBA) [1] [%] | GR relative molar binding affinity (RBA) [2] [%] | Rate of Animals with Complete Inhibition of Nidation ([3]; 1.0 mg/animal/day s.c.) | Rate of Animals with Complete Inhibition of Nidation ([3]; 3.0 mg/animal/day s.c.) | Rate of Animals with Complete Inhibition of Nidation ([3]; 10.0 mg/animal/day s.c.) | Rate of Animals with Complete Inhibition of Nidation ([3]; 0.03 mg/animal/day s.c.) | Rate of Animals with Complete Inhibition of Nidation ([3]; 0.1 mg/animal/day s.c.) | Rate of Animals with Complete Inhibition of Nidation ([3]; 0.3 mg/animal/day s.c.)
C[C@]12C[C@H](c3ccc(/C=N/O)cc3)C3=C4CCC(=O)C=C4CC[C@H]3[C@@H]1CC[C@@H]2O [Example 1, 4-(17β-Hydroxy-3-oxoestra-4,9-dien-11β-yl)benzaldehyde-1(E)-oxime] | 26 | 3 | 0/5 | 0/5 | 5/5 |  |  | 
CC1(O)CCC2C3CCC4=CC(=O)CCC4=C3C(c3ccc(C=NO)cc3)CC21C (stereo not drawn) [Example 2, 4-(17β-Hydroxy-17α-methyl-3-oxoestra-4,9-dien-11β-yl)benzaldehyde-1(E)-oxime] | 95 | 12 | 5/5 |  |  | 0/4 | 0/5 | 2/5
